Measurements reported in patent US20130004588A1, “DIVALENT CATION CONTAINING COMPOSITIONS AND METHODS FOR TREATING AND/OR PREVENTING ENZYMATIC IRRITATION” (priority 2011, published 2013).

Key:
[1] = system: trypsin; test: Inhibition of trypsin-induced cleavage of fluorescent casein, EnzChek protease assay (cations and salt forms, Examples 1 and 2); type: biochemical
Procedure: The inhibition of trypsin-induced cleavage of a fluorescent casein peptide was measured using the EnzChek™ protease assay kit, following manufacturer's instructions (EnzChek™ Protease Assay Kits Product Information, Revised; Molecular Probes, Eugene Oreg.). Briefly, test materials at different concentrations were prepared in 1×phosphate buffered saline (PBS, pH 7.4). Trypsin working solution (Sigma, St. Louis, Mo., unit/mL) was prepared in digestion buffer provided in the assay kit. Stock solution of BODIPY FL casein (trypsin substrate, mg/mL) was prepared by adding 0.2 mL to the substrate vials (provided in kit), and the final substrate working solution (10 microgram/mL) was prepared by dilution in digestion buffer (pH 7.8). […] Each experiment was performed in three replicates.

[2] = target: T1, trypsin (Bos taurus, UniProt P00760); conditions: low concentrations, around 0.001 M; cited from earlier work
T1 sequence (P00760 24-246): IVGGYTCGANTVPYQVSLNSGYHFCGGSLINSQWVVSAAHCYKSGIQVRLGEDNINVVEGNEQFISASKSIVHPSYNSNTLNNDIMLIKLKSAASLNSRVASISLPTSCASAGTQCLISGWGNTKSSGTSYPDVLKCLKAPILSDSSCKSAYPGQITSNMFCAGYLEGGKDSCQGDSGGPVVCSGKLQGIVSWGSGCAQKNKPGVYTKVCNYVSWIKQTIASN

[3] = system: trypsin; test: EnzChek trypsin inhibition assay, mixtures of talc with divalent cation salts (Example 3); type: biochemical; conditions: for With Talc trypsin inhibition activities (%): all tested materials at 0.1% (g/mL); for Hypothetically calculated additive value of salt and Talc: Table 4
Procedure: The objective of the following experiment was to determine whether and to what extent adding a divalent cation to talc inhibited trypsin activity in an in vitro assay. The inhibition of trypsin-induced cleavage of a fluorescent casein peptide was measured using the EnzChek™ protease assay kit, following manufacturer's instructions (EnzChek™ Protease Assay Kits Product Information, Revised; Molecular Probes, Eugene Oreg.). […] Trypsin working solution (Sigma, St. Louis, Mo., unit/mL) was prepared in digestion buffer provided in the assay kit. Stock solution of BODIPY FL casein (trypsin substrate, mg/mL) was prepared by adding 0.2 mL to the substrate vials (provided in kit), and the final substrate working solution (10 microgram/mL) was prepared by dilution in digestion buffer (pH 7.8). Following incubation of the trypsin, with or without the test materials, with the BODIPY fluorescent casein substrate, at room temperature for one hour, fluorescence was measured (excitation 485 nm /emission 530 nm) using a SpectraMax microtiter plate reader (Molecular Devices Corporation, Sunnyvale, Calif.) and Softmax Pro software (Molecular Devices Corporation). Each experiment was performed in three replicates.

[4] = system: trypsin; test: EnzChek trypsin inhibition assay, zinc oxide/acid mixtures and zinc oxide containing formulations (Example 4); type: biochemical; conditions: for % trypsin inhibitory activity: Table 5
Procedure: The objective of the following experiment was to determine whether and to what extent adding an acid to a formulation containing zinc oxide had on inhibition of trypsin activity in an in vitro assay. The inhibition of trypsin-induced cleavage of a fluorescent casein peptide was measured using the EnzChek™ protease assay kit, following manufacturer's instructions (EnzChek™ Protease Assay Kits Product Information, Revised; Molecular Probes, Eugene Oreg.). Briefly, mixtures of zinc oxide and acid at different concentrations were prepared in 1×PBS (pH 7.4) and their pH was recorded as listed in the Tables 5-8. Trypsin working solution (Sigma, St. Louis, Mo., unit/mL) was prepared in digestion buffer provided in the assay kit. Stock solution of BODIPY FL casein (trypsin substrate, mg/mL) was prepared by adding 0.2 mL to the substrate vials (provided in kit), and the final substrate working solution (10 microgram/mL) was prepared by dilution in digestion buffer (pH 7.8). Following incubation of the trypsin, with or without the test materials (50 μl), with the BODIPY fluorescent casein substrate, at room temperature for one hour, fluorescence was measured (excitation 485 nm/emission 530 nm) using a SpectraMax microtiter plate reader (Molecular Devices Corporation, Sunnyvale, Calif.) and Softmax Pro software (Molecular Devices Corporation). Each experiment was performed in three replicates.
For preparations, samples were diluted in 1×PBS at 1:10 ratio and subjected to centrifugation at 13,200 rpm for 1 min using Eppendorf Centrifuge (Model 5415D, Eppendorf AG, Hamburg, Germany) to remove the solid formulation ingredients. The supernatants (50 μl) were used for trypsin inhibitory activity analyses as described above. For preparations, samples were diluted in 10, or 20 or 40% ethanol and subjected to centrifugation at 13,200 rpm for 1 min using Eppendorf Centrifuge (Model 5415D, Eppendorf AG, Hamburg, Germany) to remove the solid formulation ingredients. The supernatants (50 μl) were used for trypsin inhibition assay. Possible effects of ethanol solution (10, 20 or 40% ethanol) on trypsin inhibition activity were tested in the same study and found no significant impact.

O.O.[Cl][Cu][Cl] [(II) chloride dihydrate]
% trypsin inhibitory activity ([1]; Table 1, 0.01% (g/mL)): 64.98% | % trypsin inhibitory activity ([1]; Table 1, 0.10% (g/mL)): 99.34% | % trypsin inhibitory activity ([1]; Table 1, 1% (g/mL)): 108.34%

[Ag+] [Ag+]
inhibition of the esterase activity of trypsin [2]: inhibited

CC(=O)[O-].CC(=O)[O-].O.[Ca+2] [Calcium acetate monohydrate]
% synergistic activity relative to hypothetic additive value ([3]; Table 3, 0.1% (g/mL)): 3.10% | With Talc trypsin inhibition activities (%) ([3]; Table 3): 24.6%

[Ca+2].[Cl-].[Cl-] [Calcium chloride]
% synergistic activity relative to hypothetic additive value ([3]; Table 3, 0.1% (g/mL)): −0.26% | With Talc trypsin inhibition activities (%) ([3]; Table 3): 26.43%

[Cu+2] [Cu++]
inhibition of the esterase activity of trypsin [2]: inhibited

[Hg+2] [Hg++]
inhibition of the esterase activity of trypsin [2]: inhibited

O.O.O.O.[Cl][Fe][Cl] [Iron (II) chloride tetrahydrate]
% trypsin inhibitory activity ([1]; Table 1, 0.01% (g/mL)): −3.24% | % trypsin inhibitory activity ([1]; Table 1, 0.10% (g/mL)): 64.84% | % trypsin inhibitory activity ([1]; Table 1, 1% (g/mL)): 112.23% | % synergistic activity relative to hypothetic additive value ([3]; Table 3, 0.1% (g/mL)): −12.35% | With Talc trypsin inhibition activities (%) ([3]; Table 3): 64.53%

[Cl-].[Li+] [Lithium chloride, reference compound]
% trypsin inhibitory activity ([1]; Table 1, 0.01% (g/mL)): 8.71% | % trypsin inhibitory activity ([1]; Table 1, 0.10% (g/mL)): 7.56% | % trypsin inhibitory activity ([1]; Table 1, 1% (g/mL)): −0.56%

CC(=O)[O-].CC(=O)[O-].O.O.O.O.[Mg+2] [Magnesium acetate tetrahydrate]
% trypsin inhibitory activity ([1]; Table 2, 0.10% weight (g/mL)): −3.09% | Salt alone trypsin inhibition activities (%) ([3]; Table 3, 0.1% (g/mL)): 0.83% | With Talc trypsin inhibition activities (%) ([3]; Table 3): 17.83%

[Cl-].[Cl-].[Mg+2] [Magnesium chloride]
With Talc trypsin inhibition activities (%) ([3]; Table 3): 20.05% | Hypothetically calculated additive value of salt and Talc ([3]; 0.1% MgCl2, 1% Talc): 12.44% | Hypothetically calculated additive value of salt and Talc ([3]; 0.5% MgCl2, 1% Talc): 22.93% | Hypothetically calculated additive value of salt and Talc ([3]; 1% MgCl2, 1% Talc): 25.55% | trypsin inhibitory activity (in words) ([3]; talc and magnesium chloride alone or combined): moderate to low levels

O=[N+]([O-])[O-].[Ag+] [Silver nitrate, reference compound]
% trypsin inhibitory activity ([1]; Table 1, 0.01% (g/mL)): −2.43% | % trypsin inhibitory activity ([1]; Table 1, 0.10% (g/mL)): 2.91% | % trypsin inhibitory activity ([1]; Table 1, 1% (g/mL)): 5.37%

[Cl-].[Na+] [Sodium chloride, reference compound]
% trypsin inhibitory activity ([1]; Table 1, 0.01% (g/mL)): −7.57% | % trypsin inhibitory activity ([1]; Table 1, 0.10% (g/mL)): −4.15% | % trypsin inhibitory activity ([1]; Table 1, 1% (g/mL)): 10.88%

[Cl-].[Cl-].[Sr+2] [Strontium chloride]
% trypsin inhibitory activity ([1]; Table 1, 0.01% (g/mL)): 6.51% | % trypsin inhibitory activity ([1]; Table 1, 0.10% (g/mL)): 11.78% | % trypsin inhibitory activity ([1]; Table 1, 1% (g/mL)): 47.05%

CC(=O)[O-].CC(=O)[O-].[Zn+2] [Zinc acetate dihydrate]
% synergistic activity relative to hypothetic additive value ([3]; Table 3, 0.1% (g/mL)): −15.70% | With Talc trypsin inhibition activities (%) ([3]; Table 3): 60.18%

[Cl-].[Cl-].[Zn+2] [Zinc chloride]
% trypsin inhibitory activity ([1]; Table 1, 0.01% (g/mL)): 42.99% | % trypsin inhibitory activity ([1]; Table 1, 0.10% (g/mL)): 88.51% | % trypsin inhibitory activity ([1]; Table 1, 1% (g/mL)): 105.87% | % trypsin inhibitory activity ([1]; Table 2, 0.01% weight (g/mL)): 41.25% | % trypsin inhibitory activity ([1]; Table 2, 0.10% weight (g/mL)): 87.69% | % trypsin inhibitory activity ([1]; Table 2, 1% weight (g/mL)): 98.75% | % synergistic activity relative to hypothetic additive value ([3]; Table 3, 0.1% (g/mL)): −13.01% | With Talc trypsin inhibition activities (%) ([3]; Table 3): 77.96%

CC(O)C(=O)[O-].CC(O)C(=O)[O-].[Zn+2] (stereo not drawn) [Zinc lactate]
% trypsin inhibitory activity ([1]; Table 2, 0.01% weight (g/mL)): 23.01% | % trypsin inhibitory activity ([1]; Table 2, 0.10% weight (g/mL)): 36.36% | % trypsin inhibitory activity ([1]; Table 2, 1% weight (g/mL)): 87.95%

[O]=[Zn] [ZnO, zinc oxide]
% trypsin inhibitory activity ([4]; 0.1% ZnO with 0.01% acetic acid, pH 7.28): 1.85 +/− 1.34% | % trypsin inhibitory activity ([4]; 0.1% ZnO with 0.05% acetic acid, pH 6.03): 49.16 +/− 1.43% | % trypsin inhibitory activity ([4]; 0.1% ZnO, no acetic acid, pH 7.61): −2.6 +/− 2.76% | % trypsin inhibitory activity ([4]; 1% ZnO with 0.01% acetic acid, pH 7.85): 15.82 +/− 1.68% | % trypsin inhibitory activity ([4]; 1% ZnO with 0.05% acetic acid, pH 6.08): 58.19 +/− 0.73% | % trypsin inhibitory activity ([4]; 1% ZnO, no acetic acid, pH 8.07): 5.40 +/− 1.24% | trypsin inhibitory activity (in words) ([4]; conclusion from Tables 5-8): minimal protease activity

CC(=O)O [acetic acid]
% trypsin inhibitory activity ([4]; no ZnO, 0.01% acetic acid, pH 6.84): −11.18 +/− 2.61% | % trypsin inhibitory activity ([4]; no ZnO, 0.05% acetic acid, pH 4.75): 25.81 +/− 2.13%

Zinc gluconate
% trypsin inhibitory activity ([1]; Table 2, 0.01% weight (g/mL)): 25.33% | % trypsin inhibitory activity ([1]; Table 2, 0.10% weight (g/mL)): 40.93% | % trypsin inhibitory activity ([1]; Table 2, 1% weight (g/mL)): 85.52%
